Patent US7704995B2 (Exelixis, Inc., priority 2003, dated 2010)
pIC50: −log10 of the molar value.

Target: T1, Chk1 (Homo sapiens, UniProt O14757)
T1 construct: purchased Upstate Biotechnology
T1 sequence (O14757 1-476): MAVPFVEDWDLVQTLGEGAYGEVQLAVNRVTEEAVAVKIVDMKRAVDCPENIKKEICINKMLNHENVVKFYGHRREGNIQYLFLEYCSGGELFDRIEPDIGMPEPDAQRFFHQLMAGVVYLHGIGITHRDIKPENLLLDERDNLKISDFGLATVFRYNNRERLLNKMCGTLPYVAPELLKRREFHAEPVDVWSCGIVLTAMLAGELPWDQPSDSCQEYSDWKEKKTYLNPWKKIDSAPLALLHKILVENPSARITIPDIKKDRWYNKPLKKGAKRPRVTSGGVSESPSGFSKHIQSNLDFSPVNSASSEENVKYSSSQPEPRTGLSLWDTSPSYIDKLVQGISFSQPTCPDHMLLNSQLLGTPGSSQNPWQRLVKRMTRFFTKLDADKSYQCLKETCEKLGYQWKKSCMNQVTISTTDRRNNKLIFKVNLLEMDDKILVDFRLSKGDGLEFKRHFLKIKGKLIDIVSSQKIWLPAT
Test: Chk1 kinase assay: incorporation of γ-33P ATP into immobilized myelin basic protein
Assay type: biochemical
Settings: Table 11; Chk1 only; read-out: Chk1 IC50
Method in brief: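 Read-out is scintillation counting of 33P incorporated into plate-bound myelin basic protein. Chk1 runs at 10 nM enzyme with 10 μM ATP, Chk2 at 20 nM with 30 μM ATP, each for 1 hour at room temperature. Duplicate points; IC50 taken as 50% activity reduction, Ki computed from IC50.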

CC(C)(C)OC(=O)N1CC[C@@H](CNC(=O)c2nc(-c3cccc(C(=O)N[C@H]4CCc5ccccc54)c3)cnc2N)C1 [Example 752, 1,1-dimethylethyl (3S)-3-[({[3-amino-6-(3-{[(1S)-2,3-dihydro-1H-inden-1-ylamino]carbonyl}phenyl)pyrazin-2-yl]carbonyl}amino)methyl]pyrrolidine-1-carboxylate]
pIC50: ≤ 5.00

Nc1ncc(-c2cccc(C(=O)N[C@H]3CCc4ccccc43)c2)nc1C(=O)NC[C@@H]1CCNC1 [Example 753, 3-amino-6-(3-{[(1S)-2,3-dihydro-1H-inden-1-ylamino]carbonyl}phenyl)-N-[(3R)-pyrrolidin-3-ylmethyl]pyrazine-2-carboxamide]
pIC50: > 7.30

Cn1nc(-c2nc(-c3cccc(C(=O)N[C@H]4CCc5ccccc54)c3)cnc2N)nc1[C@@H]1CCCN(C(=O)OCc2ccccc2)C1 [Example 754, phenylmethyl (3R)-3-{3-[3-amino-6-(3-{[(1S)-2,3-dihydro-1H-inden-1-ylamino]carbonyl}phenyl)pyrazin-2-yl]-1-methyl-1H-1,2,4-triazol-5-yl}piperidine-1-carboxylate]
pIC50: 5.00 to 6.00

Nc1ncc(-c2cccc(C(=O)N[C@H]3CCc4ccccc43)c2)nc1-c1nnc([C@H]2CCCNC2)[nH]1 [Example 755, 3-(5-amino-6-{5-[(3S)-piperidin-3-yl]-4H-1,2,4-triazol-3-yl}pyrazin-2-yl)-N-[(1S)-2,3-dihydro-1H-inden-1-yl]benzamide]
pIC50: > 7.30

CC(C)(C)OC(=O)N1CC[C@H](NC(=O)c2nc(-c3cccc(C(=O)NCc4ccccn4)c3)cnc2N)C1 [Example 757, 1,1-dimethylethyl (3S)-3-({[3-amino-6-(3-{[(pyridin-2-ylmethyl)amino]carbonyl}phenyl)pyrazin-2-yl]carbonyl}amino)pyrrolidine-1-carboxylate]
pIC50: 5.00 to 6.00

CC(C)(C)OC(=O)N1CC[C@H](NC(=O)c2nc(-c3cccc(C(=O)NCc4cccnc4)c3)cnc2N)C1 [Example 758, 1,1-dimethylethyl (3S)-3-({[3-amino-6-(3-{[(pyridin-3-ylmethyl)amino]carbonyl}phenyl)pyrazin-2-yl]carbonyl}amino)pyrrolidine-1-carboxylate]
pIC50: 5.00 to 6.00

CC(C)(C)OC(=O)N1CC[C@H](NC(=O)c2nc(-c3cccc(C(=O)NC4CCOc5ccccc54)c3)cnc2N)C1 (stereo partly drawn) [Example 759, 1,1-dimethylethyl (3S)-3-{[(3-amino-6-{3-[(3,4-dihydro-2H-chromen-4-ylamino)carbonyl]phenyl}pyrazin-2-yl)carbonyl]amino}pyrrolidine-1-carboxylate]
pIC50: 5.00 to 6.00

Nc1ncc(-c2cccc(C(=O)NCc3ccc(Cl)cc3)c2)nc1C(=O)N[C@H]1CCNC1 [Example 760, 3-amino-6-[3-({[(4-chlorophenyl)methyl]amino}carbonyl)phenyl]-N-[(3S)-pyrrolidin-3-yl]pyrazine-2-carboxamide]
pIC50: > 7.30

Nc1ncc(-c2cccc(C(=O)NCc3ccccn3)c2)nc1C(=O)N[C@H]1CCNC1 [Example 761, 3-amino-6-(3-{[(pyridin-2-ylmethyl)amino]carbonyl}phenyl)-N-[(3S)-pyrrolidin-3-yl]pyrazine-2-carboxamide]
pIC50: 6.00 to 7.30

CNC(=O)c1nc(-c2cc(C(=O)OC)cc(C(=O)OC)c2)cnc1N [Example 763, dimethyl 5-{5-amino-6-[(methylamino)carbonyl]pyrazin-2-yl}benzene-1,3-dicarboxylate]
pIC50: 5.00 to 6.00

Nc1ncc(-c2cccc(C(=O)N[C@H]3CCc4ccccc43)c2)nc1C(=O)N[C@@H]1CCCNC1 [Example 765, 3-amino-6-(3-{[(1S)-2,3-dihydro-1H-inden-1-ylamino]carbonyl}phenyl)-N-[(3R)-piperidin-3-yl]pyrazine-2-carboxamide]
pIC50: > 7.30

Nc1ncc(-c2cccc(C(=O)N[C@@H]3c4ccccc4C[C@@H]3O)c2)nc1C(=O)NC1CCCNC1 (stereo partly drawn) [Example 766, 3-amino-6-[3-({[(1R,2S)-2-hydroxy-2,3-dihydro-1H-inden-1-yl]amino}carbonyl)phenyl]-N-piperidin-3-ylpyrazine-2-carboxamide]
pIC50: > 7.30

Nc1ncc(-c2cccc(C(=O)N[C@H]3CCc4ccccc43)c2)nc1C(=O)NCCc1c[nH]cn1 [Example 767, 3-amino-6-(3-{[(1S)-2,3-dihydro-1H-inden-1-ylamino]carbonyl}phenyl)-N-[2-(1H-imidazol-4-yl)ethyl]pyrazine-2-carboxamide]
pIC50: 6.00 to 7.30

Nc1ncc(-c2cccc(C(=O)N[C@H]3CCc4ccccc43)c2)nc1C(=O)NC1CCCNCC1 (stereo partly drawn) [Example 768, 3-amino-N-azepan-4-yl-6-(3-{[(1S)-2,3-dihydro-1H-inden-1-ylamino]carbonyl}phenyl)pyrazine-2-carboxamide]
pIC50: 6.00 to 7.30

CC(C)(C)OC(=O)N1CC[C@@H](CNC(=O)c2nc(-c3cccc(C(=O)N[C@@H]4c5ccccc5C[C@@H]4O)c3)cnc2N)C1 [Example 769, 1,1-dimethylethyl (3S)-3-{[({3-amino-6-[3-({[(1R,2S)-2-hydroxy-2,3-dihydro-1H-inden-1-yl]amino}carbonyl)phenyl]pyrazin-2-yl}carbonyl)amino]methyl}pyrrolidine-1-carboxylate]
pIC50: ≤ 5.00

CC(C)(C)OC(=O)N1CCCC(NC(=O)c2nc(-c3cccc(C(=O)N[C@H]4CCc5ccccc54)c3)cnc2N)CC1 (stereo partly drawn) [Example 770, 1,1-dimethylethyl 4-({[3-amino-6-(3-{[(1S)-2,3-dihydro-1H-inden-1-ylamino]carbonyl}phenyl)pyrazin-2-yl]carbonyl}amino)azepane-1-carboxylate]
pIC50: ≤ 5.00

Nc1ncc(-c2cccc(C(=O)N[C@H]3CCc4ccccc43)c2)nc1-c1n[nH]c(CCOCc2ccccc2)n1 [Example 771, 3-[5-amino-6-(5-{2-[(phenylmethyl)oxy]ethyl}-1H-1,2,4-triazol-3-yl)pyrazin-2-yl]-N-[(1S)-2,3-dihydro-1H-inden-1-yl]benzamide]
pIC50: 5.00 to 6.00

CNC(=O)c1nc(-c2ccc(F)c(C(=O)N[C@H]3CCc4ccccc43)c2)cnc1N [Example 772, 3-amino-6-(3-{[(1S)-2,3-dihydro-1H-inden-1-ylamino]carbonyl}-4-fluorophenyl)-N-methylpyrazine-2-carboxamide]
pIC50: 6.00 to 7.30

Nc1ncc(-c2cccc(C(=O)N[C@H]3CCc4ccccc43)c2)nc1-c1nc(C2CCCNC2)n(-c2ccccc2)n1 (stereo partly drawn) [Example 773, 3-[5-amino-6-(1-phenyl-5-piperidin-3-yl-1H-1,2,4-triazol-3-yl)pyrazin-2-yl]-N-[(1S)-2,3-dihydro-1H-inden-1-yl]benzamide]
pIC50: 6.00 to 7.30

N=C(N)c1nc(-c2cccc(C(=O)N[C@H]3CCc4ccccc43)c2)cnc1N [Example 774, 3-{5-amino-6-[amino(imino)methyl]pyrazin-2-yl}-N-[(1S)-2,3-dihydro-1H-inden-1-yl]benzamide]
pIC50: 5.00 to 6.00

Nc1ncc(-c2cccc(C(=O)N[C@@H]3c4ccccc4C[C@@H]3O)c2)nc1-c1nnc([C@H]2CCCNC2)[nH]1 [Example 775, 3-(5-amino-6-{5-[(3S)-piperidin-3-yl]-4H-1,2,4-triazol-3-yl}pyrazin-2-yl)-N-[(1R,2S)-2-hydroxy-2,3-dihydro-1H-inden-1-yl]benzamide]
pIC50: > 7.30

CC(C)(C)OC(=O)N1CCC[C@H](NC(=O)c2nc(-c3cccc(C(=O)N[C@H]4CCc5ccccc54)c3)cnc2N)C1 [Example 776, 1,1-dimethylethyl (3S)-3-({[3-amino-6-(3-{[(1S)-2,3-dihydro-1H-inden-1-ylamino]carbonyl}phenyl)pyrazin-2-yl]carbonyl}amino)piperidine-1-carboxylate]
pIC50: 6.00 to 7.30

CC(C)(C)OC(=O)N1CCC[C@H](NC(=O)c2nc(-c3cccc(C(=O)N[C@@H]4c5ccccc5C[C@@H]4O)c3)cnc2N)C1 [Example 777, 1,1-dimethylethyl (3S)-3-[({3-amino-6-[3-({[(1R,2S)-2-hydroxy-2,3-dihydro-1H-inden-1-yl]amino}carbonyl)phenyl]pyrazin-2-yl}carbonyl)amino]piperidine-1-carboxylate]
pIC50: > 7.30

Nc1ncc(-c2cccc(C(=O)NC3CCOc4ccccc43)c2)nc1C(=O)N[C@H]1CCNC1 (stereo partly drawn) [Example 778, 3-amino-6-{3-[(3,4-dihydro-2H-chromen-4-ylamino)carbonyl]phenyl}-N-[(3S)-pyrrolidin-3-yl]pyrazine-2-carboxamide]
pIC50: 6.00 to 7.30

Nc1ncc(-c2cccc(C(=O)NC3COc4ccccc43)c2)nc1C(=O)N[C@H]1CCNC1 (stereo partly drawn) [Example 779, 3-amino-6-{3-[(2,3-dihydro-1-benzofuran-3-ylamino)carbonyl]phenyl}-N-[(3S)-pyrrolidin-3-yl]pyrazine-2-carboxamide]
pIC50: 6.00 to 7.30

Nc1ncc(-c2cccc(C(=O)N[C@@H]3c4ccccc4C[C@@H]3O)c2)nc1C(=O)NC[C@@H]1CCNC1 [Example 780, 3-amino-6-[3-({[(1R,2S)-2-hydroxy-2,3-dihydro-1H-inden-1-yl]amino}carbonyl)phenyl]-N-[(3R)-pyrrolidin-3-ylmethyl]pyrazine-2-carboxamide]
pIC50: > 7.30

CC(C)(C)OC(=O)N1CCCC(NC(=O)c2nc(-c3cccc(C(=O)N[C@@H]4c5ccccc5C[C@@H]4O)c3)cnc2N)CC1 (stereo partly drawn) [Example 781, 1,1-dimethylethyl 4-[({3-amino-6-[3-({[(1R,2S)-2-hydroxy-2,3-dihydro-1H-inden-1-yl]amino}carbonyl)phenyl]pyrazin-2-yl}carbonyl)amino]azepane-1-carboxylate]
pIC50: 6.00 to 7.30
